Six compounds from PMC11191083 (ACS Omega, 2024) can be followed below.

Test [1] relates to E. coli MG1655 + pBGS18 + CTX-M-2. The experiment in a line: MIC broth microdilution, ceftazidime with or without inhibitor. It is filed as cell-based, Escherichia coli. To be noted: for MIC of ceftazidime in the presence of inhibitor: CTX-M-2 (ESBL), inhibitor concentration 16 μg mL^–1. Background: Broth dilution looks for growth in wells or tubes with falling amounts of substance.

In test [2] the test system is P. aeruginosa PAO ΔampD (PDC-1). Described as above. It counts as cell-based. To be noted: Pseudomonas aeruginosa.
Test [3] deals with E. coli TG1 + pBGS18 + FOX-4. Described as above. It counts as cell-based, Escherichia coli. To be noted: for MIC: Escherichia coli; for MIC of ceftazidime in the presence of inhibitor: FOX-4 (Class C, ESBL), inhibitor concentration 16 μg mL^–1.
The subject of test [4] is E. coli TG1 + pBGS18 + CMY-2. Described as above. It counts as cell-based, Escherichia coli. To be noted: for MIC: Escherichia coli; for MIC of ceftazidime in the presence of inhibitor: CMY-2 (Class C, ESBL), inhibitor concentration 16 μg mL^–1.
Test [5] has as its system E. coli TG1 + pBGS18 + DHA-1. Described as above. It is filed as cell-based, Escherichia coli. As to conditions: for MIC: Escherichia coli; for MIC of ceftazidime in the presence of inhibitor: DHA-1 (Class C, ESBL), inhibitor concentration 16 μg mL^–1.
Test [6] deals with K. pneumoniae ΔompK35/36+ pBGS18+ OXA-48. The experiment in a line: MIC broth microdilution, imipenem with or without inhibitor. It is filed as cell-based, Klebsiella pneumoniae. To be noted: for MIC of imipenem in the presence of inhibitor: OXA-48 (Class D, carbapenemase), inhibitor concentration 16 μg mL^–1; for MIC: Klebsiella pneumoniae.
Test [7] concerns E. coli MG1655 + pBGS18 + CTX-M-14. The experiment in a line: MIC broth microdilution, ampicillin with or without inhibitor. It counts as cell-based, Escherichia coli. To be noted: CTX-M-14 (Class A, ESBL); inhibitor concentration 16 μg mL^–1; 20 h, 37 °C.
Setting [8] is: read-out: MIC of ceftazidime without an inhibitor.
Setting [9] is: read-out: MIC of ceftazidime, strain without β-lactamase.

Where two headings read alike, the source gives them in different places.

Turning to `CC(C)(O/N=C(\C(=O)N[C@@H]1C(=O)N2C(C(=O)[O-])=C(C[n+]3ccccc3)CS[C@H]12)c1csc(N)n1)C(=O)O` [CAZ, ceftazidime, reference compound], the MIC is 1020 µg/mL in test [1] (Escherichia coli, MG1655, read-out: MIC of ceftazidime without an inhibitor); 8 µg/mL in test [2] (setting [8]); 1 µg/mL in test [2] (setting [9]); greater than 64 µg/mL in test [3] (setting [8]); no more than 0.06 µg/mL in test [3] (setting [9]); 16 µg/mL in test [4] (setting [8]). Moreover, the MIC was no more than 0.06 µg/mL in test [4] (setting [9]), 32 µg/mL in test [5] (setting [8]) and no more than 0.06 µg/mL in test [5] (setting [9]).

For the compound `C[C@]1(COC(=O)CCc2ccc(O)c(O)c2)[C@H](C(=O)[O-])N2C(=O)/C(=C/c3ccccn3)[C@H]2S1(=O)=O.[Na+]` [Compound 3], the “MIC of imipenem in the presence of inhibitor” value (from here on “MIC of imipenem … of inhibitor”) in test [6] worked out at 16 μg mL^–1. The “MIC of ceftazidime in the presence of inhibitor” value in test [1] is reported as 2 μg mL^–1; in test [3] it was 0.12 μg mL^–1; in test [4] it was no more than 0.06 μg mL^–1; in test [5], no more than 0.06 μg mL^–1. In test [7], the “MIC of ampicillin in the presence of inhibitor” value (“MIC of ampicillin … of inhibitor” below) is listed as 32 μg mL^–1.

As to `C[C@]1(COC(=O)c2cc(Cl)ccc2O)[C@H](C(=O)[O-])N2C(=O)/C(=C/c3ccccn3)[C@H]2S1(=O)=O.[Na+]` [Compound 5], the “MIC of imipenem … of inhibitor” value in test [6] is given as 16 μg mL^–1. For the same compound, the “MIC of ceftazidime in the presence of inhibitor” value is 64 μg mL^–1 in test [1], 16 μg mL^–1 in test [3] and 0.12 μg mL^–1 in test [5]. In addition, the “MIC of ampicillin … of inhibitor” value in test [7] came to 512 μg mL^–1.

With `C[C@]1(COC(=O)c2ccncc2O)[C@H](C(=O)[O-])N2C(=O)/C(=C/c3ccccn3)[C@H]2S1(=O)=O.[Na+]` [Compound 7], the “MIC of imipenem … of inhibitor” value in test [6] amounted to 16 μg mL^–1. For the same compound, the “MIC of ceftazidime in the presence of inhibitor” value in test [1] stood at 256 μg mL^–1; in test [3], 0.12 μg mL^–1; in test [4] it was 1 μg mL^–1; in test [5], 4 μg mL^–1. Besides, in test [7], the “MIC of ampicillin … of inhibitor” value came to 1024 μg mL^–1.

As to `CC1(C)[C@H](C(=O)[O-])N2C(=O)/C(=C/c3cc(CCCOC(=O)Cc4ccc(O)c(O)c4)ccn3)[C@H]2S1(=O)=O.[Na+]` [Compound 8], the “MIC of imipenem … of inhibitor” value in test [6] amounted to 32 μg mL^–1. Besides, the “MIC of ceftazidime in the presence of inhibitor” value turned out to be 256 μg mL^–1 in test [1], 8 μg mL^–1 in test [3], 4 μg mL^–1 in test [4] and 8 μg mL^–1 in test [5]. Besides, in test [7], the “MIC of ampicillin … of inhibitor” value is reported as 1024 μg mL^–1.

For the compound `C[C@@H](O)[C@H]1C(=O)N2C(C(=O)O)=C(SCCN=CN)C[C@H]12` [IP, imipenem, reference compound], the MIC came to 64 µg/mL in test [6] (read-out: MIC of imipenem without an inhibitor) and 0.5 µg/mL in test [6] (read-out: MIC of imipenem, strain without β-lactamase).

In general, MIC refers to the lowest concentration found to suppress growth.
